Values of other authors, collected in US20130177646A1, “Solid Nicotine-Comprising Dosage Form with Reduced Organoleptic Disturbance” (priority 2012, published 2013).

Details: smoking a cigarette

## CN1CCCC1c1cccnc1 (stereo not shown) [nicotine]
  time for nicotine to reach the brain after inhalation: around ten
